The values that follow come from patent US9656994B2, “Substituted benzimidazoles as nociceptin receptor modulators” (The Scripps Research Institute, priority 2013, dated 2017).

In data set [1] the target is T1, MOP (Homo sapiens, UniProt P35372). Put plainly: cAMP biosensor assay, MOP antagonist mode. The format is cell-based.
Data set [2] concerns the target T2, NOP (Homo sapiens, UniProt P41146). The data set is described as follows: cAMP biosensor assay, NOP antagonist mode. Format: cell-based.
The target of data set [3] is T1, MOP. The data set is described as follows: cAMP biosensor assay, MOP agonist mode. The format is cell-based.
Data set [4] concerns the target T2, NOP. Put plainly: cAMP biosensor assay, NOP agonist mode. Format: cell-based.
Data set [5] relates to selected cytochrome P450 enzymes. Put plainly: affinity for selected cytochrome P450 enzymes.
Data set [6] in a line: blood-brain barrier penetration. The note with it: in vivo.
Where [7] appears, read: HEK293-CNG cells expressing NOP, antagonist mode with 5 nM nociceptin, read-out: NOP Antagonist IC50.
The mark [8] stands for this setting: HEK293-CNG cells expressing NOP, agonist mode, 11 point concentration-response, read-out: NOP Agonist EC50.

The structures appear in SMILES notation. Where two headings read alike, the source gives them in different places. Some results are limits rather than exact numbers.

T1 sequence (P35372 whole entry): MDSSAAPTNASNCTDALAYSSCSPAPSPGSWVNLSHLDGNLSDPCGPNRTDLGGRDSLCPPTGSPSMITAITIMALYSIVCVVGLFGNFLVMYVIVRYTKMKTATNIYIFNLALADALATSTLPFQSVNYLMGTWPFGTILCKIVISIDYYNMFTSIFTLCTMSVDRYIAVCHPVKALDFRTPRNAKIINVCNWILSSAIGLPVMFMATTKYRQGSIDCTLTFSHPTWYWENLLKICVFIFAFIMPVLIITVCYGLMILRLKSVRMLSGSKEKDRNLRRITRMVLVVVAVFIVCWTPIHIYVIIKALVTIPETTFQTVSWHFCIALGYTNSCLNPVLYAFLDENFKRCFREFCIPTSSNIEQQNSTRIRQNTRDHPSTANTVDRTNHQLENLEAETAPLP
T2 sequence (P41146 whole entry): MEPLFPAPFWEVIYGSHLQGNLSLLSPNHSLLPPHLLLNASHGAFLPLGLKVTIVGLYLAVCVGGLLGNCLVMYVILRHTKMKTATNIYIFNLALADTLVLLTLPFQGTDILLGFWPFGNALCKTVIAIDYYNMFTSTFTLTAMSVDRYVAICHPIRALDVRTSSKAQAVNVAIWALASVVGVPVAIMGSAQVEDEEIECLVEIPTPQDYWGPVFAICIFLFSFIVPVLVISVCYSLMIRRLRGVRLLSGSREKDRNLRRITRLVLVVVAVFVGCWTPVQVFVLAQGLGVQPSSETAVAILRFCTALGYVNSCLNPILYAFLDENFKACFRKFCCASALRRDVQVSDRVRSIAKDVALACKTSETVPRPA

Turning to `c1ccc2c(c1)nc(C1CCNCC1)n2C1CCN(CC2CCCCCCC2)CC1` [Cpd 10], the IC50 against MOP [1] and at NOP [2] (setting [7]) was > 10 µM each time. For the same compound, the EC50 at MOP [3] amounted to 0.4 µM; at NOP [4] (setting [8]), 3.5 µM.

As for `c1ccc2c(c1)nc([C@@H]1CCNC1)n2C1CCN(CC2CCCCCCC2)CC1` [Cpd 11], the “affinity for selected cytochrome P450 enzymes” value in data set [5] is reported as “low affinity”. Also, the blood-brain barrier penetration in data set [6] came out at 44%.

With `O[C@H]1CN[C@H](c2nc3ccccc3n2C2CCN(CC3CCCCCCC3)CC2)C1` [Cpd 18], on NOP [2], the IC50 came to 7.8 µM. Further, the EC50 on MOP [3] was 0.57 µM; at NOP [4], 1.4 µM.

As to `Fc1ccc2c(c1)nc([C@@H]1CCCNC1)n2C1CCN(CC2CCCCCCC2)CC1` [Cpd 30], the IC50 turned out to be 3 µM against MOP [1] and 3.9 µM at NOP [2] (setting [7]). For the same compound, the results for the EC50 at MOP [3] and on NOP [4] (setting [8]) were 0.23 µM and 0.15 µM, respectively.

Take `Cc1ccc2c(c1)nc([C@@H]1CCNC1)n2C1CCN(CC2CCCCCCC2)CC1` [Cpd 41]: the IC50 was > 100 µM against MOP [1] and > 10 µM on NOP [2] (setting [7]). In addition, the EC50 was found to be 5.9 µM on MOP [3] and 6.3 µM at NOP [4] (setting [8]).

Take `CS(=O)(=O)c1ccc2c(c1)nc([C@@H]1CCNC1)n2C1CCN(CC2CCCCCCC2)CC1` [Cpd 44]: the IC50 on MOP [1] and at NOP [2] (setting [7]) was > 10 µM throughout. For the same compound, the EC50 at NOP [4] (setting [8]) was found to be 3.3 µM.

In the case of `C1=CC2CC1CC2CN1CCC(n2c(C3CNC3)nc3ccccc32)CC1` (stereo not shown) [Cpd 47], the IC50 on MOP [1] and at NOP [2] (setting [7]) was > 10 µM throughout. Further, the EC50 on MOP [3] was found to be 0.3 µM; on NOP [4] (setting [8]), 0.31 µM.

Turning to `CC1=C(CN2CCC(n3c(C4CNC4)nc4cc(F)ccc43)CC2)C(C)(C)CCC1` [Cpd 53], the IC50 on MOP [1] and at NOP [2] (setting [7]) was > 10 µM each time. Moreover, the EC50 at NOP [4] (setting [8]) came to 0.21 µM.

As for `c1ccc2c(c1)nc(C1CNC1)n2C1CCN(CC2CCCCC2)CC1` [Cpd 55], the IC50 at MOP [1] and at NOP [2] (setting [7]) was > 10 µM in each case. Also, the EC50 on NOP [4] (setting [8]) came out at 0.14 µM.

On to `CC1(C)[C@H]2CC=C(CN3CCC(n4c([C@@H]5CCCNC5)nc5ccccc54)CC3)[C@@H]1C2` [Cpd 58], for which the IC50 against MOP [1] and on NOP [2] (setting [7]) was > 10 µM throughout. Also, the EC50 on NOP [4] (setting [8]) is 1.6 µM.

Regarding `c1ccc(CN2CCC(n3c([C@@H]4CCNC4)nc4ccccc43)CC2)cc1` [Cpd 59], the IC50 against MOP [1] and at NOP [2] (setting [7]) was > 10 µM throughout. Further, the EC50 is 0.27 µM at MOP [3] and 0.37 µM on NOP [4] (setting [8]).

In general, IC50 refers to the midpoint of a concentration-inhibition curve. The term EC50 denotes the concentration at which the effect is half-maximal.
